Experiments:
[1] = tested on: NCI (lung); test: Cytotoxicity on human cells, automated nuclei counting: NCI; type: cell-based; details: exposed 24 h to 48 h, 0.1 to 25 μM
Method: (§1) Cytotoxicity: This method is based on an automated imaging analysis. 4.10^3 cells were cultivated on 96-well plates and left for 24 hours so as to bind, to spread and proliferate.
(§2) All the cell lines were cultivated in a DMEM or RPMI (Invitrogen) medium. All these media were completed with antibiotics (penicillin-streptomycin) (Lonza) and 10% by volume of fetal calf serum (Invitrogen). The cells were cultivated at 37° C. with 5% of CO2. The treatments with the molecules to be tested were carried out with increasing concentrations. The control experiments were also carried out by using suitable dilutions of DMSO (maximum 1% DMSO).

[2] = tested on: Caco (colon); test: Cytotoxicity on human cells, automated nuclei counting: Caco; type: cell-based; details: exposed 24 h to 48 h, 0.1 to 25 μM
Method: as §1, §2

[3] = tested on: Huh7 (liver); test: Cytotoxicity on human cells, automated nuclei counting: Huh7; type: cell-based; details: Huh-7, exposed 24 h to 48 h, 0.1 to 25 μM
Method: as §1, §2

[4] = tested on: PC3 (prostate); test: Cytotoxicity on human cells, automated nuclei counting: PC3; type: cell-based; details: PC-3, exposed 24 h to 48 h, 0.1 to 25 μM
Method: as §1, §2

[5] = tested on: fibroblast; test: Cytotoxicity on human cells, automated nuclei counting: fibroblast; type: cell-based; details: exposed 24 h to 48 h, 0.1 to 25 μM
Method: as §1, §2

[6] = target: DYRK1A (Homo sapiens, UniProt Q13627); test: DYRK1A kinase inhibition (Woodtide substrate)
[7] = target: T1, CDK5/D25 (Homo sapiens, UniProt Q00535); test: CDK5 kinase inhibition (33P-ATP, histone H1); type: biochemical; details: buffer C, 30° C., 15 μM ATP, read-out: IC50 μM Kinases CDK5
T1 construct: made in house
T1 sequence (Q00535 whole entry): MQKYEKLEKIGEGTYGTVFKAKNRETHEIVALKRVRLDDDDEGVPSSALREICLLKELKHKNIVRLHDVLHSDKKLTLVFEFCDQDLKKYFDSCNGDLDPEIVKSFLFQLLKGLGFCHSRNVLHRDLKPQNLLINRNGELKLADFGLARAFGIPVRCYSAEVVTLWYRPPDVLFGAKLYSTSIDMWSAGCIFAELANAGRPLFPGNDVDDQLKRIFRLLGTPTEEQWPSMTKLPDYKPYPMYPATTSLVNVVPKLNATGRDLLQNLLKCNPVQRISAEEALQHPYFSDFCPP
T1 sequence (Q15078 99-307 partner limits assumed): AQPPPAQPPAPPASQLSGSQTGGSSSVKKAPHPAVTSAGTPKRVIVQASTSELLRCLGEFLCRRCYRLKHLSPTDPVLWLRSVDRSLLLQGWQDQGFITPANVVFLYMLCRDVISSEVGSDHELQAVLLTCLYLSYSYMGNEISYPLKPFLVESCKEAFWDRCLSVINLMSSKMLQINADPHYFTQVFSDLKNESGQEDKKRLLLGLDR
Method: The protein kinase inhibition activities of the compounds of the invention are tested according to the following general procedure:
Buffer C: 60 mM β-glycerophosphate, 15 mM p-nitrophenyl-phosphate, 25 mM Mops (pH 7.2), 5 mM EGTA, 15 mM mgCl2, 1 mM DTT, 1 mM sodium vanadate and 1 mM phenylphosphate.
The controls were made with suitable dilutions of DMSO.
ATP (3.000 Ci/mmol.; 10 mCi/mL) in a final volume of 30 μL. After 30 mins of incubation at 30° C., 25 μL of supernatant aliquots were deposited on phosphocellulose Whatman P81 paper pieces of 2.5×3 cm, and after 20 seconds, the filters were washed five times (for at least 5 minutes each time) in a solution of 10 mL of phosphoric acid/1 litre of water. The wet filters were counted in the presence of 1 mL of scintillation fluid ACS (Amersham).

[8] = target: GSK-3αβ; test: GSK-3 kinase inhibition (GS-1 substrate); details: read-out: IC50 μM Kinases GSK3, buffer A, 30° C., 15 μM ATP
[9] = tested on: HCT 116 (colon); test: Cytotoxicity on human cells, automated nuclei counting: HCT 116; type: cell-based; details: HCT 116 cells, exposed 24 h to 48 h, 0.1 to 25 μM
Method: as §1, §2

[10] = tested on: MDA-MB 231 (breast); test: Cytotoxicity on human cells, automated nuclei counting: MDA-MB 231; type: cell-based; details: MDA-MB 231 cells, exposed 24 h to 48 h, 0.1 to 25 μM
Method: as §1, §2

SMILES	IC50 [1] [µM]	IC50 [2] [µM]	IC50 [3] [µM]	IC50 [4] [µM]	IC50 [5] [µM]	melting point [°C]	IC50 [6] [µM]	IC50 [7] [µM]	IC50 [8] [µM]	IC50 [9] [µM]	IC50 [10] [µM]
O=C(Nc1cccc(F)n1)Nc1cccc2c1C1CCCCN1C2=O (stereo not shown) [Compound 23, 1-(6-Fluoropyridin-2-yl)-3-(6-oxo-1,2,3,4,6,10b-hexahydropyrido[2,1-a]isoindol-10-yl)urea]	0.3	0.03	0.1	0.03	0.3	254	3.5	0.9	0.026	< 0.01	0.03
Cc1cc(NC(=O)Nc2cccc3c2C2CCCCN2C3=O)no1 (stereo not shown) [Compound 24, 1-(5-Méthylisoxazol-3-yl)-3-(6-oxo-1,2,3,4,6,10b-hexahydropyrido[2,1-a]isoindol-10-yl)urea]	10	3	3	6	12	156	> 10	2.7	0.033	2	3
O=C(Nc1cscn1)Nc1cccc2c1C1CCCCN1C2=O (stereo not shown) [Compound 26, 1-(6-Oxo-1,2,3,4,6,10b-hexahydropyrido[2,1-a]isoindol-10-yl)-3-(thiazol-4-yl)urea]	5	0.8	1.2	2	4	178 to 180	> 10	0.43	0.76	0.8	0.4
O=C(Nc1ccc(Br)cn1)Nc1cccc2c1C1CC3(CCN1C2=O)SCCS3 (stereo not shown) [Compound 31, 1-(5-Bromopyridin-2-yl)-3-(6′-oxo-3′,4′,6′,10b′-tetrahydro-1′H-spiro[[1,3]dithiolane-2,2′-pyrido[2,1-a]isoindole]-10′-yl)urea]	1.5	5	0.8	3	8	240	≥ 10	7.3	0.068	1.2	4
O=C(Nc1nc2ccccc2s1)Nc1cccc2c1C1CCCCN1C2=O (stereo not shown) [Compound 34, 1-(Benzo[d]thiazol-2-yl)-3-(6-oxo-1,2,3,4,6,10b-hexahydropyrido[2,1-a]-isoindol-10-yl)urea]	4	0.7	0.6	1	2	260	88	16	3.5	0.5	1.5
Cc1nc(NC(=O)Nc2cccc3c2C2CCCCN2C3=O)cs1 (stereo not shown) [Compound 35, 1-(2-Methylthiazol-4-yl)-3-(6-oxo-1,2,3,4,6,10b-hexahydropyrido[2,1-a]isoindol-10-yl)urea]	3	0.7	0.9	1.5	0.4	146	> 10	0.53	0.12	0.6	1.5
O=C(Nc1csc(-c2ccncc2)n1)Nc1cccc2c1C1CCCCN1C2=O (stereo not shown) [Compound 37, 1-(6-Oxo-1,2,3,4,6,10b-hexahydropyrido[2,1-a]isoindol-10-yl)-3-(2-(pyridin-4-yl)thiazol-4-yl)urea]	4	1.5	2	1	3	152	2.4	1.7	0.13	0.7	1.5
O=C(Nc1ncccn1)Nc1cccc2c1C1CCCCN1C2=O (stereo not shown) [Compound 42, 1-(6-oxo-1,2,3,4,6,10b-hexahydro-pyrido[2,1-a]isoindol-10-yl)-3-pyrimidin-2-yl-urea]	8	2	0.6	2	2.5	232	> 10	> 10	0.75	4	4
Cc1cccnc1NC(=O)Nc1cccc2c1C1CC3(CCN1C2=O)OCCO3 (stereo not shown) [Compound 45]	> 25	> 25	> 25	> 25	> 25	> 260	> 10	3.1	0.61	25	> 25
Cc1cccc(NC(=O)Nc2cccc3c2C2CC4(CCN2C3=O)OCCO4)n1 (stereo not shown) [Compound 46]	12	10	12	12	20	240 to 242	> 10	> 10	0.92	10	15
O=C(Nc1cccc(Br)n1)Nc1cccc2c1C1CC3(CCN1C2=O)OCCO3 (stereo not shown) [Compound 47]	20	12	8	6	20	184 to 186	> 10	> 10	0.89	6	20
COc1cc(NC(=O)Nc2cccc3c2C2CC4(CCN2C3=O)OCCO4)nc2ccccc12 (stereo not shown) [Compound 48]	20	> 25	8	8	20	258 to 260	> 10	> 10	1	8	4
Cc1cccc(NC(=O)Nc2cccc3c2C2CC4(CCN2C3=O)SCCS4)n1 (stereo not shown) [Compound 50]	15	10	5	6	2	154 to 156	> 10	> 10	2	12	15
Cc1cnc(NC(=O)Nc2cccc3c2C2CC4(CCN2C3=O)SCCS4)cn1 (stereo not shown) [Compound 51]	0.8	0.5	0.3	0.4	8	> 260	> 10	0.22	0.05	0.2	0.4
COc1cc(NC(=O)Nc2cccc3c2C2CC(OC)CCN2C3=O)nc2ccccc12 (stereo not shown) [Compound 55, 1-(2-Methoxy-6-oxo-1,2,3,4,6,10b-hexahydropyrido[2,1-a]isoindol-10-yl)-3-(4-methoxyquinolin-2-yl)urea]	5	10	3	3	10	> 260	> 10	8.5	0.18	2.5	15
COC1CCN2C(=O)c3cccc(NC(=O)Nc4cnc(C)cn4)c3C2C1 (stereo not shown) [Compound 59, 1-(2-methoxy-6-oxo-1,2,3,4,6,10b-hexahydropyrido[2,1-a]isoindol-10-yl)-3-(5-methylpyrazin-2-yl)urea]	6	12	1.2	5	5	140 to 142	> 10	0.32	0.14	3	6
O=C1c2cccc(NC(=S)Nc3cnccn3)c2C2CCCCN12 (stereo not shown) [Compound 63, 1-(6-Oxo-1,2,3,4,6,10b-hexahydropyrido[2,1-a]isoindol-10-yl)-3-(pyrazin-2-yl)thiourea]	> 25	> 25	> 25	> 25	> 25	204	> 100	26	8	> 25	> 25

— patent US20120095022A1, “DERIVATIVES OF 10-AMINO-1,2,3,4-TETRAHYDROPYRIDO[2,1-A]ISOINDOL-6(10BH)-ONES, METHOD FOR PREPARATION THEREOF AND THERAPEUTIC USES THEREOF” (UNIVERSITE D'ORLEANS, priority 2009, published 2012)
